Measurements reported in patent US20050287078A1, “Minimizing powder retention on surfaces” (MEDERIO AG, priority 2004, published 2005).

Assay: Ipratropium climate stability tests (fine particle dose out of HandiHaler, Andersen impactor)
Settings: Atrovent powder, 1 month at 25° C./60% Rh or 40° C./75% Rh, FIG. 4
Protocol: The powder was withdrawn from the originator's capsules and transferred to the capsules again after climate storage. The aerodynamic fine particle fraction (FPF) in the emitted dose from the HandiHaler® was measured using Andersen impactors according to European Pharmacopoeia (EP) and US Pharmacopoeia (USP). All analytical work were then performed according to standardized methods using a state of the art High Performance Liquid Chromatograph (HPLC) system.
Aerodynamic fine particle fraction of metered and delivered dose out of Handihaler® using Atrovent® formulation powder was analyzed. Transfer of powder from and back into originator capsules was performed in relative humidity below 10%. The test was performed with 4 kPa pressure drop over the HandiHaler® at room temperature and laboratory ambient conditions.
An in-use stability test was carried out of the aerodynamic fine particle fraction of metered and delivered dose out of Handihaler®. From the blister holding the Atrovent® capsules the powder was transferred to a medium moisture barrier container and sealed. The containers were put for 1 month in 25° C. and 60% Rh. The container holding the powder was then put in an exicator for 2 h before tests were performed. The inhaler test was performed with 4 kPa pressure drop over the HandiHaler® at room temperature and laboratory ambient conditions. […]

## CC(C)[N+]1(C)[C@@H]2CC[C@H]1CC(OC(=O)C(CO)c1ccccc1)C2.[Br-] (stereo partly shown) [ipratropium bromide]
  Moisture sensitivity (drop in fine particle dose, FPD): very moisture sensitive
